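All cell lines were grown in 96-well plates and treated with compound for 48 hours. TGI denotes the concentration required for complete inhibition of growth.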 Where a SMILES comes first, the peptide text is derived from it. [ ]: non-standard residue; d: D form. The star is where a group is joined. Phe(4-NO2) = N[CH](Cc1ccc([N+](=O)[O-])cc1)C(=O)O; Cbz = O=C(OCc1ccccc1)*
How the values were obtained:
Test in all cases: NCI-60 cell line screen, 48 h
HT29 colon = tested on: HT29 colon
KM12 colon = tested on: KM12 colon
HCT-15 colon = tested on: HCT-15 colon
OVCAR-3 ovarian = tested on: OVCAR-3 ovarian
K-562 leukemia = tested on: K-562 leukemia
DU-145 prostate = tested on: DU-145 prostate
IGROV1 ovarian = tested on: IGROV1 ovarian
NCI-H460 lung = tested on: NCI-H460 lung
A549 NSCLC = tested on: A549 NSCLC
OVCAR-4 ovarian = tested on: OVCAR-4 ovarian
RPMI-8226 leukemia = tested on: RPMI-8226 leukemia
NCI-H23 lung = tested on: NCI-H23 lung
U251 CNS = tested on: U251 CNS
SF-295 CNS = tested on: SF-295 CNS
PC-3 prostate = tested on: PC-3 prostate

Structure (SMILES)	TGI (HT29 colon)	TGI (KM12 colon)	TGI (HCT-15 colon)	TGI (OVCAR-3 ovarian)	TGI (K-562 leukemia)	TGI (DU-145 prostate)	TGI (IGROV1 ovarian)	TGI (NCI-H460 lung)	TGI (A549 NSCLC)	TGI (OVCAR-4 ovarian)	TGI (RPMI-8226 leukemia)	TGI (NCI-H23 lung)	TGI (U251 CNS)	TGI (SF-295 CNS)	TGI (PC-3 prostate)
Fc1nc(-c2c3ccccc3c3sc4ccccc4n23)nc(N2CCOCCOCCOCCOCC2)n1	> 100 µM	> 100 µM	> 100 µM	> 100 µM	> 100 µM	> 100 µM	> 100 µM	> 100 µM	> 100 µM	> 100 µM	> 100 µM	> 100 µM	> 100 µM	> 100 µM	> 100 µM
CCOC(=O)CCC(NC(=O)OCc1ccccc1)C(=O)NC(CCC(=O)OCC)C(=O)NC(CCC(=O)OCC)C(=O)NC(CCC(=O)OCC)C(=O)NC(CCC(=O)OCC)C(=O)NC(Cc1ccc([N+](=O)[O-])cc1)C(=O)NC(CCC(=O)OCC)C(=O)NC(CCC(=O)OCC)C(=O)NC(CCC(=O)OCC)C(=O)NC(CCC(=O)OCC)C(=O)NC(CCC(=O)OCC)C(=O)OCC (stereo not given) (Cbz-E(OEt)E(OEt)E(OEt)E(OEt)E(OEt)[Phe(4-NO2)]E(OEt)E(OEt)E(OEt)E(OEt)E(OEt)-OEt; configuration not given here)	> 50 µM	> 50 µM	> 50 µM	> 50 µM	> 50 µM	> 50 µM	> 50 µM	> 50 µM	> 50 µM	> 50 µM	> 50 µM	> 50 µM	> 50 µM	–	> 50 µM
COC(=O)C1=CCC[C@H]2[C@@]1(COC(C)=O)CC[C@@H](C)[C@]2(C)CC(=O)c1ccoc1	> 50 µM	> 50 µM	49.5 µM	> 50 µM	–	> 50 µM	> 50 µM	> 50 µM	> 50 µM	> 50 µM	29.6 µM	47.2 µM	> 50 µM	> 50 µM	> 50 µM
CC(=O)O[C@H]1[C@@H](N2CCCCC2)C[C@H]2[C@@H]3CC=C4C[C@@H](N5CCCC5)CC[C@]4(C)[C@H]3CC[C@@]21C	> 100 µM	> 100 µM	> 100 µM	> 100 µM	22.5 µM	–	> 100 µM	> 100 µM	> 100 µM	> 100 µM	92.9 µM	> 100 µM	> 100 µM	> 100 µM	> 100 µM
O=[N+]([O-])/C(C(Cl)=C(Cl)Cl)=C(\NCc1ccccc1)Sc1ccccc1	> 100 µM	36.9 µM	35 µM	34.5 µM	> 100 µM	> 100 µM	–	> 100 µM	> 100 µM	75.4 µM	> 100 µM	40.1 µM	> 100 µM	41 µM	> 100 µM
O=C1CSc2ccnc(=O)n21	–	–	–	–	–	> 100 µM	> 100 µM	> 100 µM	> 100 µM	> 100 µM	> 100 µM	> 100 µM	> 100 µM	–	> 100 µM
CSc1cc(Cl)c(C(=O)Nc2ccccc2)cc1S(=O)(=O)n1cc[nH]c1=O	> 100 µM	> 100 µM	> 100 µM	> 100 µM	> 100 µM	> 100 µM	> 100 µM	> 100 µM	> 100 µM	> 100 µM	> 100 µM	> 100 µM	> 100 µM	–	> 100 µM
CSCCCNC(=O)c1csc(-c2csc(CCNC(=O)CNC(=O)OC(C)(C)C)n2)n1	> 100 µM	> 100 µM	> 100 µM	> 100 µM	> 100 µM	> 100 µM	> 100 µM	> 100 µM	> 100 µM	> 100 µM	–	> 100 µM	> 100 µM	> 100 µM	> 100 µM
CCOc1ccc(NC(=O)/C=C/c2ccco2)cc1	> 100 µM	> 100 µM	> 100 µM	–	> 100 µM	> 100 µM	> 100 µM	> 100 µM	> 100 µM	–	> 100 µM	> 100 µM	> 100 µM	> 100 µM	> 100 µM
O=C1/C(=C/c2ccc([N+](=O)[O-])cc2)Oc2cc(O)ccc21	–	> 100 µM	69.1 µM	73.8 µM	46.9 µM	> 100 µM	> 100 µM	> 100 µM	92.9 µM	> 100 µM	65.8 µM	> 100 µM	93 µM	> 100 µM	66.8 µM
CCc1cn(C2CC(CO)C(CO)S2)c(=O)[nH]c1=O (stereo not given)	> 100 µM	> 100 µM	> 100 µM	> 100 µM	> 100 µM	> 100 µM	> 100 µM	–	> 100 µM	> 100 µM	> 100 µM	> 100 µM	> 100 µM	> 100 µM	> 100 µM
COc1cccc(-c2nc(N)c(C#N)c3c2CCS(=O)(=O)c2ccc(C)cc2-3)c1	> 49.1 µM	> 58.4 µM	> 100 µM	> 100 µM	11 µM	> 100 µM	> 100 µM	> 100 µM	> 100 µM	> 100 µM	–	> 100 µM	> 100 µM	> 100 µM	> 100 µM
CCC(=O)NC(NNS(=O)(=O)c1ccc(C)cc1)(C(F)(F)F)C(F)(F)F	–	> 100 µM	> 100 µM	> 10 µM	> 100 µM	> 100 µM	> 100 µM	> 100 µM	> 100 µM	–	> 100 µM	> 100 µM	> 10 µM	> 100 µM	> 100 µM
c1ccc(Nc2nnc(-c3ccccc3Nc3ccccc3-c3nnc(Nc4ccccc4)s3)s2)cc1	> 100 µM	> 100 µM	> 100 µM	> 100 µM	> 100 µM	> 100 µM	> 100 µM	> 100 µM	–	> 100 µM	–	> 100 µM	> 100 µM	> 100 µM	> 100 µM
COc1cccc(C2c3cc4c(cc3OC(N3CCCC3)C2c2ccccc2)OCO4)c1O (stereo not given)	26.2 µM	18.7 µM	37.3 µM	27.8 µM	42.6 µM	90.5 µM	47.8 µM	33.7 µM	61.4 µM	–	31 µM	36.2 µM	–	30.3 µM	27 µM
COc1ccc(-n2c(C)nc3ccc(NC4OC(COC(C)=O)C(OC(C)=O)C(OC(C)=O)C4OC(C)=O)cc3c2=O)cc1 (stereo not given)	> 100 µM	> 100 µM	> 100 µM	> 100 µM	79 µM	> 100 µM	> 100 µM	> 100 µM	–	> 100 µM	61.2 µM	> 100 µM	> 100 µM	> 100 µM	> 100 µM

Structure (SMILES)	TGI (HT29 colon)	TGI (KM12 colon)	TGI (HCT-15 colon)	TGI (OVCAR-3 ovarian)	TGI (K-562 leukemia)	TGI (DU-145 prostate)	TGI (IGROV1 ovarian)	TGI (NCI-H460 lung)	TGI (A549 NSCLC)	TGI (OVCAR-4 ovarian)	TGI (RPMI-8226 leukemia)	TGI (NCI-H23 lung)	TGI (U251 CNS)	TGI (SF-295 CNS)	TGI (PC-3 prostate)
N=c1oc2ccccc2cc1C(=O)Nc1ccccn1	> 100 µM	> 100 µM	> 100 µM	> 100 µM	> 100 µM	> 100 µM	> 100 µM	> 100 µM	> 100 µM	> 100 µM	> 100 µM	> 100 µM	> 100 µM	–	–
Cc1cc(O)c(C(O)c2ccccn2)cc1O (stereo not given)	44 µM	82.3 µM	34.1 µM	28.6 µM	> 100 µM	> 100 µM	> 100 µM	> 100 µM	> 100 µM	–	67.4 µM	42.6 µM	> 100 µM	> 100 µM	29.1 µM
CCCCCCCCCCCC(=O)OCC(O)CO (stereo not given)	> 100 µM	75.6 µM	> 100 µM	> 100 µM	–	> 100 µM	–	> 100 µM	> 100 µM	> 100 µM	–	> 100 µM	> 100 µM	> 100 µM	> 100 µM
CN(C)/C=N/S(=O)(=O)c1nn2c(C=O)c(-c3ccc(-c4ccccc4)cc3)nc2s1	1.49 µM	7.36 µM	7.75 µM	3.73 µM	–	6.13 µM	2.59 µM	13.7 µM	> 44.5 µM	4.24 µM	3 µM	4.55 µM	3.17 µM	42.5 µM	5.07 µM
O=C(O)c1cc(-c2ccc3cc(O)c(O)cc3c2)ccc1O	> 12.5 µM	> 12.5 µM	> 12.5 µM	> 12.5 µM	> 12.5 µM	> 12.5 µM	> 12.5 µM	> 12.5 µM	> 12.5 µM	–	–	> 12.5 µM	> 12.5 µM	> 12.5 µM	> 12.5 µM
c1ccc2c(c1)n1c(N3CCCC3)[n+]3ccccc3c1c1c3cccc[n+]3c(N3CCCC3)n21	–	> 100 µM	> 100 µM	> 100 µM	> 100 µM	> 100 µM	> 100 µM	> 100 µM	> 100 µM	> 100 µM	> 100 µM	> 100 µM	> 100 µM	> 100 µM	> 100 µM
CCOP(=O)(OCC)/C(C#N)=C/c1cccn1C	> 100 µM	> 100 µM	> 100 µM	> 100 µM	–	> 100 µM	> 100 µM	> 100 µM	> 100 µM	> 100 µM	> 100 µM	> 100 µM	> 100 µM	> 100 µM	> 100 µM
COC(=O)/C=C1/OC(c2ccccc2)=C(Br)C1=O	50.6 µM	> 100 µM	> 100 µM	> 100 µM	> 100 µM	> 100 µM	–	> 100 µM	–	> 100 µM	> 100 µM	> 100 µM	> 100 µM	–	> 100 µM
COc1ccc(-n2c(C)nc3ccc(NC4OCC(OC(C)=O)C(OC(C)=O)C4OC(C)=O)cc3c2=O)cc1 (stereo not given)	> 100 µM	> 100 µM	> 100 µM	> 100 µM	> 100 µM	> 100 µM	> 100 µM	> 100 µM	–	> 100 µM	> 100 µM	> 100 µM	> 100 µM	> 100 µM	> 100 µM
N#Cc1ccc(N=NN2CCCC2)cc1	–	> 100 µM	> 100 µM	> 100 µM	> 100 µM	> 100 µM	> 100 µM	> 100 µM	–	> 100 µM	> 100 µM	> 100 µM	> 100 µM	> 100 µM	> 100 µM
CC1=CC(=O)c2ccc3c4ccccc4n(C)c3c2C1=O	> 31.6 µM	> 100 µM	> 100 µM	> 100 µM	> 100 µM	> 100 µM	> 100 µM	> 100 µM	> 100 µM	> 100 µM	> 100 µM	> 92 µM	> 100 µM	> 100 µM	–
N#Cc1ccccc1NC(=O)C(O)C(O)C(O)C(O)C=O (stereo not given)	> 100 µM	> 100 µM	> 100 µM	> 100 µM	> 100 µM	> 100 µM	> 100 µM	> 100 µM	> 100 µM	> 100 µM	–	> 100 µM	> 100 µM	> 100 µM	> 100 µM
CCOC(=O)/C(=C\n1c(=O)sc2ccccc21)C(=O)c1ccccc1	> 100 µM	> 100 µM	> 100 µM	–	> 100 µM	> 100 µM	> 100 µM	> 100 µM	> 100 µM	> 100 µM	> 100 µM	> 100 µM	> 100 µM	> 100 µM	> 100 µM
CCc1cccc(CC)c1Nc1nc(-c2ccccc2-c2ccccc2)cs1	–	> 100 µM	> 100 µM	> 100 µM	> 100 µM	> 100 µM	> 100 µM	> 100 µM	> 100 µM	> 100 µM	> 100 µM	> 100 µM	> 100 µM	> 100 µM	> 100 µM
CC(=O)/C=C1/C(=O)C(CC(C)C)=C1CC(C)C	> 100 µM	> 100 µM	> 100 µM	–	–	> 100 µM	> 100 µM	–	> 100 µM	> 100 µM	–	> 100 µM	> 100 µM	> 100 µM	> 100 µM
C1=C(c2ccccc2)NC2=N[C@H]3CCCC[C@@H]3N2C1c1ccccc1 (stereo not given in full)	14.8 µM	22.9 µM	23.5 µM	25.8 µM	72.2 µM	29.6 µM	26 µM	25.3 µM	–	22.2 µM	49.8 µM	25.8 µM	26.1 µM	25.7 µM	23.9 µM

Source: PubChem BioAssay (NCI)
